Reference: article PMC2443290, “Genistein-Supplemented Diet Decreases Malaria Liver Infection in Mice and Constitutes a Potential Prophylactic Strategy” (PLoS ONE, 2008)
pIC50: −log10 of the molar value. Where “and” joins values, the source holds several entries; their conditions need not be identical. Equal entries are not always repeated. Where two headings read alike, the source gives them in different places.

How the values were obtained:
[1] = test system: P. berghei ANKA sporozoites; test: Mouse liver infection by P. berghei ANKA sporozoites, 18S rRNA qRT-PCR; format: in vivo
Procedure: (§1) C57BL/6 mice were bred and housed in the pathogen-free facilities of the Instituto de Gulbenkian de Ciência following all the EU regulations. The mice were then moved to the Instituto de Medicina Molecular Animal House were all the experiments were performed. All protocols were approved by the IMM Animal Care Committee. […] All mice were infected with 1×10^4 P. berghei ANKA sporozoites between the ages of 7 and 9 weeks old and liver infection was determined 40 hours later. In a parallel set of experiments, sporozoite infection was allowed to proceed to blood stage, to assess the impact of genistein in disease progression.
Forty hours post-sporozoite injection, livers were dissected and homogenized, and total RNA was extracted with an RNeasy Mini kit Quiagen, according to the manufacturer's recommendation. cDNA was obtained by reverse transcription using the First-strand cDNA synthesis kit (Roche) following the manufacturer's instructions. Quantitative RT-PCR reactions were performed for quantification of parasite load, using an ABI PRISM 7000, Applied Biosystem, and specific primers for Plasmodium berghei 18 S rRNA (5′-[…]-3′ and 5′-[…]-3′); or specific primers for P. yoelii 18 S rRNA (5′ –[…]-3′ and 5′-[…]-3′) were used for quantification of parasite load in the livers of mice 40 hours after sporozoite challenge. The amplification program consisted of incubation at 50°C for 2 min, 95°C for 10 min, followed by 50 cycles at 95°C for 15 s and 60°C for 1 min. For external standardization, plasmids encoding cDNA fragments cloned into TOPO TA, Invitrogen; corresponding to the amplified regions of the corresponding genes, were utilized. Copy numbers were calculated comparing the cycle numbers of the log-linear phase of the samples with the cycle numbers of the external standards.

[2] = test system: P. berghei ANKA sporozoites; test: In vitro infection of HepG2 cells by P. berghei ANKA sporozoites, EEF counting; format: cell-based; settings: 25 μM
Procedure: (§2) HepG2, and Hepa1-6 cells (human and mouse hepatoma cell lines, respectively) were maintained in DMEM 10% FCS, 1% Penicillin/Streptomycin and 1 mM glutamine. HepG2 or Hepa1-6 cells (2×10^5) were seeded in 24-well plates and allowed to adhere for 24 hours before infection. Huh7 cells (human hepatoma cell line) were maintained in RPMI 10% FCS, 1% Penicillin/Streptomycin and 1 mM glutamine. Huh7 cells (1,75×10^5) were seeded in 24-well plates and allowed to adhere for 24 hours before infection. Green fluorescent protein (GFP)-expressing P. berghei ANKA sporozoites were obtained from the dissection of infected Anopheles stephensi mosquito salivary glands.
(§3) P. berghei ANKA sporozoites (4×10^4/well) were added to monolayers of Hepa1-6 or HepG2 cells in 24-well plates. […] As control, an equivalent volume of DMSO (dimethylsulphoxide) was added. After 24 hours cells were fixed and stained with mouse anti-EEF (exo-erythrocytic forms of the parasite) antibody (2E6), followed by an anti-mouse secondary antibody. In all experiments, genistein was left in the cultures since the time of addition until the cells were fixed for quantification of infection. Infection was quantified by counting the total number of EEFs per coverslip using fluorescence microscopy (magnification 400×). […] The level of infection was measured as described above, 24 hours post-infection with sporozoites. Quantification of the area of 100 individual EEFs of each group was performed using ImageJ 1.36b software. The results are expressed as areas in μm^2.

[3] = test system: P. berghei sporozoites; format: cell-based; settings: data not shown
Procedure: (§4) This was performed in parallel to experiments where primaquine was tested in P. berghei infection of Huh7 cells. […] In addition to hepatoma cell lines primary mouse hepatocyte cultures were also used.

[4] = test system: P. berghei ANKA; test: IC50 of infection of Huh7 cells by P. berghei ANKA, 18S rRNA qRT-PCR; format: cell-based; settings: Plasmodium berghei
Procedure: as §4
Black circles represent the mean of P. berghei ANKA18S rRNA expression in each condition (n = 3). […] Black circles represent the mean of P. berghei ANKA18S rRNA expression in each condition (n = 3).

[5] = test system: P. berghei ANKA-infected red blood cells (iRBC); test: Blood stage infection of mice with P. berghei ANKA iRBC; format: in vivo; settings: 1000 ppm genistein-supplemented diet; 1×10^6 iRBC i.p.
Procedure: Peripheral blood parasitemia and ECM symptoms were determined as described above.

[6] = test system: P. berghei ANKA sporozoites; test: In vitro infection of Huh7 cells by P. berghei ANKA sporozoites, EEF counting; format: cell-based
Procedure: as §2
as §3, with “After 24 hours cells were fixed and stained with mouse anti-EEF (exo-erythrocytic forms of the parasite) antibody (2E6), followed by an anti-mouse secondary antibody.” left out

[7] = test system: P. berghei ANKA sporozoites; test: Blood parasitemia, survival and experimental cerebral malaria after sporozoite infection of mice; format: in vivo; settings: 1000 ppm genistein-supplemented diet
Procedure: as §1
After sporozoite inoculation, peripheral blood parasitemias were followed daily by counting parasites in Giemsa stained thin blood films. To accurately quantify parasitemia in the first 96 hours post-infection, 50 to 100 microscope fields were examined in each blood film. At later time points, when the levels of parasitemia were higher, 20 microscope fields were counted per mouse. Mice were checked daily for development of ECM symptoms, which include ataxia, paralysis, deviation of the head and convulsions, coma and death.

[8] = test system: HepG2 cells; test: Viability of genistein-treated HepG2 cells, number of adherent cells; format: cell-based, human; settings: 25 μM or 250 μM, 24 hours
Procedure: (§5) Twenty four hours later the number of adherent cells was determined in 10 fields per coverslip, in triplicates. […] Control sporozoites were treated with equivalent volume of DMSO. After 30 min of incubation, sporozoites were washed and added to a monolayer of HepG2 cells seeded 24 hours before. Infection was assessed 24 hours later by determining the number of EEFs in each well.

[9] = test system: P. berghei ANKA sporozoites; test: Pre-treatment of sporozoites with genistein, then infection of HepG2 cells; format: cell-based; settings: sporozoites incubated with 100 μM for 30 min, washed, added to HepG2 cells; 24 hours
Procedure: as §5

[10] = Genistein quantification in mouse sera, HPLC/MS; format: in vivo, C57BL/6 mice; settings: for Genistein Concentration (μM): mouse sera, individual mice
Procedure: as §1, with “later.” for “later. In a parallel set of experiments, sporozoite infection was allowed to proceed to blood stage, to assess the impact of genistein in disease progression.”
“Free” analytes_aglycones, were extracted from the plasma/serum sample with ethyl acetate. The organic phase was evaporated and the dried residue was reconstituted in the mobile phase. For determination of the “total” isoflavones the glucuronide- and sulphate-conjugates were cleaved by enzymatic hydrolysis prior to ethyl acetate extraction. Chromatographic separation was performed by HPLC/MS on a C18-column in the gradient mode. Mass spectrometric detection (Agilent LC/MSD VL single-quadrupole-mass spectrometer equipped with elektrospray-ion source) was carried out with negative electrospray ionisation in the SIM-mode. Specifically, 200 μl of plasma were transferred into a 2 mL Eppendorf tube and 100 μl of enzyme solution were added. For enzymatic cleavage of the glucuronide- and sulphate-conjugates the samples were incubated at 38°C for 3 h, followed by addition of 30 μl internal standard solution. For extraction, 1200 μl ethyl acetate was added to the sample, shaken for 5 min at 300 rpm and centrifuged for 10 min at 10000 rpm and 10°C. 1000 μl of the supernatant was transferred into a 2 ml Eppendorf tube and evaporated at 30–35°C to dryness with a Vortex-Evaporator or Speed Vac. The dried residue was reconstituted in 150 μl mobile phase, briefly vortexed, and transferred into an HPLC vial. Forty to 75 μl were injected onto the analytical column and analyzed by HPLC-MS [35]. Data acquisition of extracted ion chromatograms, integration and quantification was performed with the Chemstation Software (Version 9.03 or higher) from Agilent Technologies.

[11] = test system: phospho c-met (Tyr1234/1235); test: Sporozoite-induced MET phosphorylation in Huh7 cells, Western blot; format: cell-based, human; settings: four hours after sporozoites
Procedure: Four hours later total protein extracts were analysed with anti-phospho c-met (Tyr1234/1235) and MET antibodies.
Protein concentrations were determined using the Bio-Rad Laboratories DC protein assay kit and equal amounts of protein extracts ([…]) were separated by 8% SDS-PAGE gels, transferred onto nitrocellulose membranes and processed for Western blotting. The antibody directed to phospho-MET was used at 1∶1000 dilution (#3126; Cell signalling technology, Inc.) and β-chain of human MET was detected with the antibody MET (C-12) at 0,5 μg/mL dilution (#sc-10; Santa Cruz Biotechnology, Inc.). After incubation with the primary antibodies the enhanced chemiluminescence detection system ECL and Kodak films (Amersham Pharmacia Biotech, Piscataway, NJ) were used to visualize proteins on the nitrocellulose blots.

[12] = test system: P. yoelii sporozoites; test: Mouse liver infection by P. yoelii sporozoites, 18S rRNA qRT-PCR; format: in vivo; settings: single i.p. dose 200 mg/kg immediately prior to i.v. sporozoites; 40 hours
Procedure: as §1
Forty hours post-sporozoite injection, livers were dissected and homogenized, and total RNA was extracted with an RNeasy Mini kit Quiagen, according to the manufacturer's recommendation. cDNA was obtained by reverse transcription using the First-strand cDNA synthesis kit (Roche) following the manufacturer's instructions. Quantitative RT-PCR reactions were performed for quantification of parasite load, using an ABI PRISM 7000, Applied Biosystem, and specific primers for Plasmodium berghei 18 S rRNA (5′-[…]-3′ and 5′-[…]-3′); or specific primers for P. yoelii 18 S rRNA (5′ –[…]-3′ and 5′-[…]-3′) were used for quantification of parasite load in the livers of mice 40 hours after sporozoite challenge. […]

[13] = test system: P. berghei ANKA sporozoites; test: In vitro infection of Hepa1-6 cells by P. berghei ANKA sporozoites, EEF counting; format: cell-based
Procedure: as §2
as §3, with “After 24 hours cells were fixed and stained with mouse anti-EEF (exo-erythrocytic forms of the parasite) antibody (2E6), followed by an anti-mouse secondary antibody.” left out

[14] = test system: P. yoelii; test: IC50 of infection of Hepa1-6 cells by P. yoelii, 18S rRNA qRT-PCR; format: cell-based; settings: Plasmodium yoelii, Hepa1-6, 24 h, P. yoelii infection of Hepa1-6 cells, read-out: IC50 (inhibition of infection)
[15] = test system: Huh7 cells; test: Cell death of Huh7 cells, propidium iodide flow cytometry; format: cell-based, human; settings: 24 hours
[16] = test system: P. berghei ANKA expressing GFP sporozoites; test: FACS analysis of Huh7 cells infected with PbGFP sporozoites (invasion and GFP intensity); format: cell-based
Procedure: FACS analysis at 2, 6, 30 and 44 hours after sporozoite addition was performed to determine the percentage of parasite-containing cells and parasite-GFP intensity within infected cells. Cell samples for FACS analysis were processed as previously described.

[17] = adults; daily ingestion of up to 54 mg; cited from earlier work

In the case of `O=c1c(-c2ccc(O)cc2)coc2cc(O)cc(O)c12` [genistein], the “relation of degree of liver infection to genistein levels in sera” value ([1]; 1000 ppm genistein-supplemented diet) was “inversely correlated”, the liver parasite load ([1]; 1000 ppm genistein-supplemented diet, 40 hours after sporozoite injection) was “significantly reduced” and the “parasite load in the liver” value ([1]; single i.p. dose 200 mg/kg immediately prior to i.v. sporozoites, 40 hours) was “reduced infection”. For the same molecule, the “reduction of liver infection” value ([1]; single oral dose 200 mg/kg 6 hours prior to sporozoite inoculation, 40 hours after infection) was 64%, the “infection, drug removed at different times after infection” value ([2]; HepG2, added at sporozoite addition and washed at various time-points) was “reduced infection when it was present during the first 4 hours of infection” and the “infection, drug added at different times after sporozoite addition” value ([2]; HepG2, added prior to infection or up to 6 hours after sporozoite addition) was “significantly reduced infection to approximately the same extent”. For the same molecule, the reduction in infection ([2]; HepG2 cells, 24 hours after infection) was 74±8%, the “infection of primary mouse hepatocytes” value [3] was “reduced the infection of these cells” and the pIC50 ([4]; Huh-7, 24 h, read-out: IC50 (inhibition of infection), P. berghei ANKA infection of Huh7 cells) was roughly 4.70. For the same molecule, the “development of parasitemia after iRBC infection” value [5] was “no significant difference”, the “infection after pre-treatment of cells” value ([6]; Huh7 cells pre-treated 2 h with 25 μM, washed before sporozoite addition, 24 hours) was “small but significant reduction of infection” and the reduction in infection ([6]; Huh7 cells, 25 μM, 24 hours after infection) was 68±4%. For the same molecule, the survival ([7]; 25 days after infection) was 56%, the “appearance of blood parasitemia” value ([7]; i.v. sporozoites) was “significantly reduced” and the “mice protected from developing cerebral malaria” value ([7]; i.v. sporozoites) was “Fifty-six”. For the same molecule, the “number of adherent cells” value [8] was “constant number of cells”, the “infection level (EEF number) with pre-treated sporozoites” value [9] was “no significant difference” and the “genistein amounts in sera” value ([10]; genistein supplemented diet) was no more than 5 µM. For the same molecule, the “Genistein Concentration (μM)” value ([10]; single oral dose 200 mg/kg, 2 h after gavage, 200 mg/kg) was 7,07 μM and 15,00 μM and 13,25 μM and 7,23 μM, the “Genistein Concentration (μM)” value ([10]; single oral dose 200 mg/kg, 6 h after gavage, 200 mg/kg) was 0,57 μM and 0,32 μM and 0,45 μM and 2,29 μM and the “Genistein Concentration (μM)” value ([10]; supplemented diet 1000 ppm, 7–9 weeks old mice) was 3,32 μM and 1,99 μM and 1,35 μM and 2,26 μM and 3,02 μM and 1,34 μM and 3,14 μM and 3,75 μM and 0,20 μM and 1,11 μM and 0,84 μM and 1,37 μM and 0,68 μM and 1,16 μM and 1,42 μM. The “sporozoite-induced Met phosphorylation” value [11] was “inhibited by genistein”, the “parasite load in the liver” value [12] was “reduced infection” and the “EEF size (area)” value ([13]; Hepa1-6, 25 μM, 24 hours after infection) was “significantly smaller”. The “Hepa1-6 cell infection (total number of EEFs)” value ([13]; increasing doses of genistein, 24 hours after sporozoite addition) was “significantly inhibits Hepa1-6 cell infection in a dose-dependent manner”, the pIC50 [14] was roughly 4.52 and the “proportion of cell death” value [15] was “constant proportion of cell death”. The “increase in GFP intensity of infected cells (parasite development)” value ([16]; 6, 30 and 44 hours after sporozoite addition) was “significantly less pronounced”, the “invasion rate (GFP positive cells)” value ([16]; 2 hours post-infection) was “equally invaded” and the adverse effects [17] was “No obvious adverse effects”.
Molecule `COc1cc(NC(C)CCCN)c2ncccc2c1` (stereo not shown) [primaquine] has a pIC50 ([4]; Huh-7, P. berghei ANKA infection of Huh7 cells, 24 hours, read-out: IC50 (inhibition of infection)) of 4.89.
